Measured values as given in the NIST ThermoML archive (doi:10.1016/j.jct.2009.07.006).
± gives the expanded uncertainty stated by the source.

Conditions: Liquid, Vibrating tube method

Cc1ccccn1 [2-methylpyridine]
mass density [kg/m3]
Conditions	298.15 K	308.15 K	318.15 K	328.15 K
2130 kPa	941.2 ± 0.8	932.1 ± 0.8	922.8 ± 0.8	913.5 ± 0.8
4150 kPa	942.5 ± 0.8	933.5 ± 0.8	924.3 ± 0.8	915.1 ± 0.8
6180 kPa	943.9 ± 0.8	935 ± 0.8	925.8 ± 0.8	916.7 ± 0.8
8210 kPa	945.3 ± 0.8	936.4 ± 0.8	927.3 ± 0.8	918.3 ± 0.8
10230 kPa	946.6 ± 0.8	937.8 ± 0.8	928.8 ± 0.8	919.8 ± 0.8
11250 kPa	947.2 ± 0.8	938.5 ± 0.8	929.5 ± 0.8	920.5 ± 0.8
12260 kPa	947.9 ± 0.8	939.1 ± 0.8	930.2 ± 0.8	921.3 ± 0.8
14290 kPa	949.2 ± 0.8	940.5 ± 0.8	931.6 ± 0.8	922.8 ± 0.8
16310 kPa	950.5 ± 0.8	941.9 ± 0.8	933 ± 0.8	924.3 ± 0.8
18340 kPa	951.7 ± 0.8	943.2 ± 0.8	934.4 ± 0.8	925.7 ± 0.8
20370 kPa	953 ± 0.8	944.5 ± 0.8	935.8 ± 0.8	927.2 ± 0.8
22390 kPa	954.2 ± 0.8	945.8 ± 0.8	937.1 ± 0.8	928.6 ± 0.8
24420 kPa	955.4 ± 0.8	947 ± 0.8	938.5 ± 0.8	930 ± 0.8
26450 kPa	956.6 ± 0.8	948.3 ± 0.8	939.8 ± 0.8	931.4 ± 0.8
28470 kPa	957.7 ± 0.8	949.5 ± 0.8	941.1 ± 0.8	932.7 ± 0.8
29490 kPa	958.3 ± 0.8	950.1 ± 0.8	941.7 ± 0.8	933.4 ± 0.8
30500 kPa	958.9 ± 0.8	950.8 ± 0.8	942.4 ± 0.8	934.1 ± 0.8
32520 kPa	960.1 ± 0.8	952 ± 0.8	943.7 ± 0.8	935.4 ± 0.8
34550 kPa	961.2 ± 0.8	953.2 ± 0.9	944.9 ± 0.9	936.8 ± 0.9
36580 kPa	962.4 ± 0.9	954.3 ± 0.9	946.1 ± 0.9	938 ± 0.9
38600 kPa	963.5 ± 0.9	955.5 ± 0.9	947.3 ± 0.9	939.3 ± 0.9
39620 kPa	964 ± 0.9	956.1 ± 0.9	947.9 ± 0.9	940 ± 0.9

Cc1ccncc1 [4-methylpyridine]
mass density [kg/m3]
Conditions	298.15 K	308.15 K	318.15 K	328.15 K
2130 kPa	951.2 ± 0.3	942.3 ± 0.3	933.3 ± 0.3	924.3 ± 0.3
4150 kPa	952.5 ± 0.3	943.7 ± 0.3	934.7 ± 0.3	925.8 ± 0.3
6180 kPa	953.8 ± 0.3	945 ± 0.3	936.1 ± 0.3	927.3 ± 0.3
8210 kPa	955.1 ± 0.3	946.4 ± 0.3	937.4 ± 0.3	928.7 ± 0.3
10230 kPa	956.3 ± 0.3	947.7 ± 0.3	938.9 ± 0.3	930.2 ± 0.3
11250 kPa	956.9 ± 0.3	948.3 ± 0.3	939.5 ± 0.3	930.9 ± 0.3
12260 kPa	957.5 ± 0.3	949 ± 0.3	940.2 ± 0.3	931.6 ± 0.3
14290 kPa	958.8 ± 0.3	950.3 ± 0.3	941.6 ± 0.3	933 ± 0.3
16310 kPa	960 ± 0.3	951.5 ± 0.3	942.9 ± 0.3	934.4 ± 0.3
18340 kPa	961.2 ± 0.3	952.8 ± 0.3	944.2 ± 0.3	935.7 ± 0.3
20370 kPa	962.3 ± 0.3	954 ± 0.3	945.5 ± 0.3	937.1 ± 0.3
22390 kPa	963.5 ± 0.3	955.2 ± 0.3	946.7 ± 0.3	938.4 ± 0.3
24420 kPa	964.6 ± 0.3	956.4 ± 0.3	948 ± 0.3	939.7 ± 0.3
26450 kPa	965.8 ± 0.3	957.6 ± 0.3	949.2 ± 0.3	941.1 ± 0.3
28470 kPa	966.9 ± 0.3	958.8 ± 0.3	950.5 ± 0.3	942.3 ± 0.3
29490 kPa	967.4 ± 0.3	959.3 ± 0.3	951.1 ± 0.3	943 ± 0.3
30500 kPa	968 ± 0.3	959.9 ± 0.3	951.7 ± 0.3	943.6 ± 0.3
32530 kPa	969.1 ± 0.3	961.1 ± 0.3	952.9 ± 0.3	944.8 ± 0.4
34550 kPa	970.2 ± 0.3	962.2 ± 0.3	954 ± 0.3	946.1 ± 0.4
36580 kPa	971.3 ± 0.3	963.3 ± 0.3	955.2 ± 0.3	947.3 ± 0.4
38600 kPa	972.3 ± 0.3	964.4 ± 0.3	956.4 ± 0.3	948.5 ± 0.4
39620 kPa	972.8 ± 0.3	965 ± 0.3	957 ± 0.3	949.1 ± 0.4

c1ccncc1 [pyridine]
mass density [kg/m3]
Conditions	298.15 K	308.15 K	318.15 K	328.15 K
2130 kPa	979 ± 0.2	969.2 ± 0.2	959.3 ± 0.2	949.2 ± 0.2
4150 kPa	980.4 ± 0.2	970.6 ± 0.2	960.8 ± 0.2	950.7 ± 0.2
6180 kPa	981.8 ± 0.2	972.1 ± 0.2	962.3 ± 0.2	952.3 ± 0.2
8210 kPa	983.2 ± 0.2	973.5 ± 0.2	963.7 ± 0.2	953.9 ± 0.2
10230 kPa	984.5 ± 0.2	974.9 ± 0.2	965.2 ± 0.2	955.4 ± 0.2
11250 kPa	985.1 ± 0.2	975.6 ± 0.2	966 ± 0.2	956.2 ± 0.2
12260 kPa	985.8 ± 0.2	976.3 ± 0.2	966.7 ± 0.2	956.9 ± 0.2
14290 kPa	987.1 ± 0.2	977.6 ± 0.2	968.1 ± 0.2	958.4 ± 0.2
16310 kPa	988.3 ± 0.2	978.9 ± 0.2	969.5 ± 0.2	959.9 ± 0.2
18340 kPa	989.6 ± 0.2	980.3 ± 0.2	970.9 ± 0.2	961.3 ± 0.2
20370 kPa	990.8 ± 0.2	981.6 ± 0.2	972.2 ± 0.2	962.8 ± 0.2
22390 kPa	992.1 ± 0.2	982.8 ± 0.2	973.6 ± 0.2	964.2 ± 0.2
24420 kPa	993.3 ± 0.2	984.1 ± 0.2	974.9 ± 0.2	965.6 ± 0.2
26450 kPa	994.5 ± 0.2	985.4 ± 0.2	976.2 ± 0.2	967 ± 0.2
28470 kPa	995.7 ± 0.2	986.7 ± 0.2	977.6 ± 0.2	968.3 ± 0.2
29490 kPa	996.3 ± 0.2	987.2 ± 0.2	978.2 ± 0.2	969 ± 0.2
30500 kPa	996.9 ± 0.2	987.8 ± 0.2	978.8 ± 0.2	969.7 ± 0.2
32530 kPa	998 ± 0.2	989 ± 0.2	980.1 ± 0.2	971 ± 0.2
34550 kPa	999.1 ± 0.2	990.3 ± 0.2	981.4 ± 0.2	972.3 ± 0.2
36580 kPa	1000.3 ± 0.2	991.5 ± 0.2	982.6 ± 0.2	973.6 ± 0.2
38600 kPa	1001.4 ± 0.2	992.6 ± 0.2	983.8 ± 0.2	975 ± 0.2
39620 kPa	1002 ± 0.2	993.2 ± 0.2	984.4 ± 0.2	975.6 ± 0.2

Cc1cccnc1 [3-methylpyridine]
mass density [kg/m3]
Conditions	298.15 K	308.15 K	318.15 K	328.15 K
2130 kPa	953.2 ± 0.3	944.3 ± 0.3	935.3 ± 0.3	926.3 ± 0.3
4150 kPa	954.5 ± 0.3	945.7 ± 0.3	936.7 ± 0.3	927.8 ± 0.3
6180 kPa	955.8 ± 0.3	947.1 ± 0.3	938.1 ± 0.3	929.2 ± 0.3
8210 kPa	957.1 ± 0.3	948.4 ± 0.3	939.4 ± 0.3	930.7 ± 0.3
10230 kPa	958.4 ± 0.3	949.7 ± 0.3	940.9 ± 0.3	932.2 ± 0.3
11250 kPa	959 ± 0.3	950.4 ± 0.3	941.6 ± 0.3	932.9 ± 0.3
12260 kPa	959.6 ± 0.3	951 ± 0.3	942.3 ± 0.3	933.6 ± 0.3
14290 kPa	960.8 ± 0.3	952.3 ± 0.3	943.6 ± 0.3	935 ± 0.3
16310 kPa	962.1 ± 0.3	953.6 ± 0.3	944.9 ± 0.3	936.4 ± 0.3
18340 kPa	963.3 ± 0.3	954.8 ± 0.3	946.2 ± 0.3	937.7 ± 0.3
20370 kPa	964.4 ± 0.3	956.1 ± 0.3	947.5 ± 0.3	939.1 ± 0.3
22390 kPa	965.6 ± 0.3	957.3 ± 0.3	948.8 ± 0.3	940.4 ± 0.3
24420 kPa	966.7 ± 0.3	958.5 ± 0.3	950.1 ± 0.3	941.7 ± 0.3
26450 kPa	967.9 ± 0.3	959.7 ± 0.3	951.3 ± 0.3	943.1 ± 0.3
28470 kPa	969 ± 0.3	960.9 ± 0.3	952.6 ± 0.3	944.4 ± 0.3
29490 kPa	969.6 ± 0.3	961.5 ± 0.3	953.2 ± 0.3	945 ± 0.3
30500 kPa	970.1 ± 0.3	962 ± 0.3	953.8 ± 0.3	945.7 ± 0.3
32530 kPa	971.2 ± 0.3	963.2 ± 0.3	955 ± 0.3	946.9 ± 0.4
34550 kPa	972.3 ± 0.3	964.3 ± 0.3	956.2 ± 0.3	948.2 ± 0.4
36580 kPa	973.4 ± 0.3	965.4 ± 0.3	957.4 ± 0.3	949.4 ± 0.4
38600 kPa	974.5 ± 0.3	966.5 ± 0.3	958.5 ± 0.3	950.6 ± 0.4
39620 kPa	975 ± 0.3	967.1 ± 0.3	959.1 ± 0.3	951.2 ± 0.4
